The record followed here is publication PMC8188423, “Investigating the phosphinic acid tripeptide mimetic DG013A as a tool compound inhibitor of the M1-aminopeptidase ERAP1” (Bioorganic & Medicinal Chemistry Letters, 2021).

Data set [1] relates to Caco-2 human colon carcinoma cell line. As to the kind of experiment: Caco-2 permeability assay. It is filed as in vitro ADME. Particulars: SI table, remark in Recovery A:B cell. How it is done: (§1) Whether the inhibition of ERAP1 by 1 would translate to in-cell activity would depend on its permeability, as well as its affinity.
(§2) Papp (apparent permeability) was determined in the Caco-2 human colon carcinoma cell line (ATCC). Cells were maintained (DMEM with 10% fetal bovine serum, penicillin, and streptomycin) in a humidified atmosphere with 5% CO2/95% air for 10 days. Cells were plated out onto a cell culture assembly plate (Millipore, UK), and monolayer confluency was checked using a TEER electrode prior to the assay. Media was washed off and replaced in the appropriate apical and basal wells with HBSS buffer (pH 7.4) containing compound (10 μM, 1% DMSO). The Caco-2 plate was incubated for 2 h at 37 °C, and Lucifer Yellow was used to confirm membrane integrity after the assay. Samples from the apical and basolateral chambers were analyzed using a Waters TQ-S LC-MS/MS system.
On the technique in general: Caco-2 monolayers are a common model of the intestinal barrier.

Data set [2] can be described thus: Caco-2 permeability assay. Particulars: human; for recovery at 2 h, 10 μM: Caco-2, pH 7.4, SI table; for Papp B→A at 2 h, 10 μM / Papp A→B at 2 h, 10 μM: Caco-2, pH 7.4; for Papp B→A at 2 h, 10 μM: SI table; for Papp A→B at 2 h, 10 μM: apical to basolateral, limit of quantification 1.0 x 10^−6 cm/s, read-out: CACO2 Papp A:B. It is filed as in vitro ADME, human. The protocol:
as §1, §2

Data set [3] has as its target human ERAP2 (Homo sapiens, UniProt Q6P179). The data set is described as follows: ERAP2 R-AMC aminopeptidase assay. The following applies: ERAP2 10 nM, R-AMC 10 µM, pH8.0, 30 min.
Excerpt: Conditions were selected whereby substrate concentrations were at or below Km, so that IC50 values could be compared between proteins for competitive ligands.
Briefly, the assay consists in measuring the fluorescence of 7-amido-4-methylcoumarin (AMC) released by the enzymatic hydrolysis of one of the short peptide substrates: Leucine-AMC (Sigma, catalogue # L2145) by the ERAP1 enzyme, Arginine-AMC (Sigma, catalogue # A2027) by the ERAP2 enzyme or Alanine-AMC (Sigma, catalogue #A4302) by the APN (ANPEP/CD13) enzyme. […] After 30 minutes of reaction at room temperature, the fluorescence was red on a Pherastar FSX (BMG LabTech) or an Envision (Perkin Elmer) plate readers, with excitation and emission filters at 350 nm and 460 nm, respectively.

Each structure is given as a SMILES string. Like-named read-outs stand apart in the source and are kept apart here.

Sequence of human ERAP2 (Q6P179 whole entry): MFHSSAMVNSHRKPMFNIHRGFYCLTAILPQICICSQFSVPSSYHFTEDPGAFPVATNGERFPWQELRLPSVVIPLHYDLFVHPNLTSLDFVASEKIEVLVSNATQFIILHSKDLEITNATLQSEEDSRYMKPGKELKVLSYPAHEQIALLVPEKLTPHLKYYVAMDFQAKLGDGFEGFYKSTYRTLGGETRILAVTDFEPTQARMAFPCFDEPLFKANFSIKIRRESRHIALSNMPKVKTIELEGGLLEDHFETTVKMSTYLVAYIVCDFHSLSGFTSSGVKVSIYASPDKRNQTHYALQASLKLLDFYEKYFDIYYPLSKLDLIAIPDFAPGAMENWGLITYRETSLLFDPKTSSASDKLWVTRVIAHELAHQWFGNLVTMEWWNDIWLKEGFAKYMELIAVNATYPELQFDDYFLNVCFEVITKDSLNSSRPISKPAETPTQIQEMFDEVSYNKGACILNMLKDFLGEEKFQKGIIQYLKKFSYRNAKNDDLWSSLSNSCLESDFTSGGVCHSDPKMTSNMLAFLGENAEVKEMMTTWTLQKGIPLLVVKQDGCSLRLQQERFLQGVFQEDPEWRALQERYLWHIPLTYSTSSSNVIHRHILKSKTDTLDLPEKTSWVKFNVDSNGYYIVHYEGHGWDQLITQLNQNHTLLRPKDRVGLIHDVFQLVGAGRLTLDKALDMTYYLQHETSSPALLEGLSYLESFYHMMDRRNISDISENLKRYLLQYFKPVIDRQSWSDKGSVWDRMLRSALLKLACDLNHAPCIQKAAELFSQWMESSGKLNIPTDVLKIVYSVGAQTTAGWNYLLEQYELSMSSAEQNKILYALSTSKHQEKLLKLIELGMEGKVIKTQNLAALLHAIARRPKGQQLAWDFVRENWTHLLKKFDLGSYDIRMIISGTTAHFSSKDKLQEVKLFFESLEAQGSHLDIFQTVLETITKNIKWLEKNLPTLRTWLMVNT

One may read the Papp B→A as the apparent permeability from the basolateral to the apical side of a cell layer. Broadly, the Papp A→B is how fast a substance crosses the layer from the apical side. With `COC(=O)[C@H](Cc1c[nH]c2ccccc12)NC(=O)C(CC(C)C)CP(=O)(O)[C@@H](N)CCc1ccccc1` (stereo in doubt) [compound 17, ((R)-2-(((S)-3-(1H-indol-3-yl)-1-methoxy-1-oxopropan-2-yl)carbamoyl)-4-methylpentyl)((R)-1-amino-3-phenylpropyl)phosphinic acid], the “stability observation in Caco-2 assay A:B” value in data set [1] is “Ester hydrolysis observed”. Moreover, in data set [2] (read-out: Recovery A:B), the recovery at 2 h, 10 μM was 2%. In addition, the recovery at 2 h, 10 μM in data set [2] (read-out: Recovery B:A) came out at 84%. Further, in data set [2], the Papp B→A at 2 h, 10 μM is less than 1 ×10⁻⁶ cm/s and the apical-to-basolateral permeability (Papp A→B) at 2 h, 10 μM was less than 1 ×10⁻⁶ cm/s.

With `CC(C)C[C@H](CP(=O)(O)[C@@H](N)CCc1ccccc1)C(=O)N[C@@H](Cc1c[nH]c2ccccc12)C(N)=O` [DG013A 1, ((S)-2-(((S)-1-amino-3-(1H-indol-3-yl)-1-oxopropan-2-yl)carbamoyl)-4-methylpentyl)((R)-1-amino-3-phenylpropyl)phosphinic acid, reference compound], in data set [2] (read-out: Recovery A:B), the recovery at 2 h, 10 μM is 97%. The recovery at 2 h, 10 μM in data set [2] (read-out: Recovery B:A) was 100%. Also, in data set [2], the basolateral-to-apical permeability (Papp B→A) at 2 h, 10 μM is less than 1 ×10⁻⁶ cm/s and the Papp A→B at 2 h, 10 μM was less than 1 ×10⁻⁶ cm/s.

Take `CC(C)CC(CP(=O)(O)[C@@H](N)CCc1ccccc1)C(=O)N[C@@H](Cc1c[nH]c2ccccc12)C(=O)O` (stereo in doubt) [compound 18, ((2R)-2-((((R)-1-amino-3-phenylpropyl)(hydroxy)phosphoryl)methyl)-4-methylpentanoyl)-L-tryptophan]: the results for the recovery at 2 h, 10 μM in data set [2] (read-out: Recovery A:B) and in data set [2] (read-out: Recovery B:A) were 83% and 96%, respectively. In data set [2], this compound gave a Papp B→A at 2 h, 10 μM of less than 1 ×10⁻⁶ cm/s. The Papp A→B at 2 h, 10 μM in data set [2] is less than 1 ×10⁻⁶ cm/s.

Regarding `CC(C)C[C@@H](CP(=O)(O)[C@@H](N)CCc1ccccc1)C(=O)N[C@@H](Cc1c[nH]c2ccccc12)C(N)=O` [DG013B 2, reference compound], the recovery at 2 h, 10 μM in data set [2] (read-out: Recovery A:B) is 83%. For the same compound, the recovery at 2 h, 10 μM in data set [2] (read-out: Recovery B:A) turned out to be 90%. For the same compound, in data set [2], the Papp B→A at 2 h, 10 μM is less than 1 ×10⁻⁶ cm/s and the apical-to-basolateral permeability (Papp A→B) at 2 h, 10 μM was less than 1 ×10⁻⁶ cm/s.

A word on the IC50: it is the midpoint of a concentration-inhibition curve. For `CC(C)C[C@H](CP(=O)(O)[C@H](CCc1ccccc1)NC(=O)OCc1ccccc1)C(=O)N[C@@H](Cc1c[nH]c2ccccc12)C(N)=O` [compound 3, (2S)-2-((((1S)-2-amino-1-(1H-indol-3-ylmethyl)-2-oxo-ethyl)carbamoyl)-4-methyl-pentyl)-((1R)-1-(benzyloxycarbonylamino)-3-phenyl-propyl)phosphinic acid], the “ERAP2 pIC50 ± SEM” value in data set [3] is less than 3.66. The 50% inhibitory concentration (IC50) in data set [3] (read-out: ERAP2 IC50 (geometric mean)) is more than 220 µM. Besides, in data set [2] (read-out: Recovery A:B), the recovery at 2 h, 10 μM was 79%. Moreover, the recovery at 2 h, 10 μM in data set [2] (read-out: Recovery B:A) came to 84%. Besides, the efflux ratio at 2 h, 10 μM in data set [2] (Caco-2, pH 7.4, PappB:A/PappA:B, read-out: CACO2 ER (efflux ratio)) was more than 12. For the same compound, in data set [2], the basolateral-to-apical permeability (Papp B→A) at 2 h, 10 μM was 4.3 ×10⁻⁶ cm/s and the apical-to-basolateral permeability (Papp A→B) at 2 h, 10 μM was less than 1 ×10⁻⁶ cm/s.
